Like-named read-outs stand apart in the source and are kept apart here.
How the values were obtained:
[1] = Example 3: plasma pharmacokinetics of free and total silibinin A and B after Legalon SIL infusion (HPLC-UV); format: in vivo, human; conditions: for AUC(0-∞), free silibinin: 20 mg/kg iv Legalon SIL, 8 hepatitis C patients; for AUC(0-∞), free silibinin / MRT / Tmax / clearance / Vd / half-life: plasma; for MRT / Tmax / clearance / Vd / half-life: human, intravenous, 20 mg/kg; for clearance: read-out: CL, free silibinin (converted); for Vd: read-out: Vz, free silibinin; for half-life: read-out: t1/2, free silibinin (converted)
Protocol: An in vivo study was performed to characterize plasma concentration/time profiles of silibinin in 8 patients suffering from chronic hepatitis C who received 7 days i.v. infusion treatment with 20 mg silibinin/kg body weight (Legalon® SIL). For multiple doses of 20 mg/kg body weight, plasma concentration/time profiles and PK parameters of free and total silibinin had been observed on day 1 (=single dose conditions) and were compared with those on day 7 (=expected steady state conditions).
The study samples were analyzed using a validated HPLC-UV method. During the assay period the analytical procedure was validated by two calibration curves per analytical run.

[2] = target: T1, HCV NS5BΔ21 polymerase genotype J4 (1b) (Hepatitis C virus genotype 1b, UniProt O92972); experiment: Cell-free enzyme assay for HCV RdRp activity; format: biochemical
T1 construct: HCV NS5BΔ21 polymerase genotype J4 (1b)
Protocol: NS5B RNA-dependent RNA polymerase (RdRp) is an essential enzyme fir viral replication (cf. S. B. Hwang et al., Virology 1997, 227, 439-46). The following pure compounds were tested in a cell-free enzyme assay for the detection of HCV RdRp activity: silibinin A, silibinin B, isosilibinin A, isosilibinin B, silichristin, silidianin, and the silibinin ester silibinin-C-2″,3-bis(hydrogensuccinate) disodium (active ingredient of Legalon® SIL).
Stock solutions (100 mM) of the compounds in 100% DMSO were prepared. The concentration of DMSO in all reactions was kept constant at 5%. Target enzyme for the study was HCV NS5BΔ21 polymerase genotype J4 (1b).
The IC50 value of the silibinin ester was determined from the dose-response curve of two measurements. […] Curves were fitted to data points and IC50 values were interpolated from the resulting curves using SigmaPlot 8.0 software.

hepatitis C virus [3] = experiment: Protocol 1: serum HCV RNA (TaqMan PCR) in peginterferon/ribavirin nonresponders, iv silibinin for 7 days; format: in vivo, human; conditions: monotherapy
Protocol: Patients with previous nonresponse to full dose of peginterferon/ribavirin combination therapy were selected for these studies. […] Patients were required to have a liver biopsy done within 2 years prior inclusion into this study. Standard inclusion/exclusion criteria for peginterferon/ribavirin therapy were applied. Patients first received daily 10 mg/kg silibinin (Legalon Sil®, Madaus, Köln) infused over 4 hrs for 7 consecutive days. On day 1 blood was drawn for determination of oxidative stress parameters at baseline, every 30 minutes during the infusion and 2 hours after the end of the infusion. On day 8 treatment was changed to 140 mg silymarin (Legalon®, Madaus, Köln) TID per os in combination with 180 μ[…]®; Roche, Basel) and 1-1.2 g/d ribavirin (COPEGUS®; Roche, Basel). In both protocols in case of intolerance to PEG-IFN alfa2a or ribavirin, standard dose adjustment guidelines were used. Antiviral combination therapy was given for a total of 24 weeks (with the Option to stop treatment in patients without a >2 log drop at week 12); virologic responders at week 24 were offered to continue treatment for further 48 weeks. After end of the infusion period patients were tested after weeks 2, 4, and then monthly till the end of therapy at week 24. Serum HCV RNA level was determined by the TaqMan PCR assay (Cobas […] TaqMan HCV Test; limit of detection, 15 IU/mL, Roche Diagnostics).

[4] = Serum ALT during iv silibinin monotherapy (Protocol 1); format: in vivo, human; conditions: 10 mg/kg/day iv for 7 days; decreased from 162±133; p=0.004
Protocol: Patients first received daily 10 mg/kg silibinin (Legalon Sil®, Madaus, Köln) infused over 4 hrs for 7 consecutive days. On day 1 blood was drawn for determination of oxidative stress parameters at baseline, every 30 minutes during the infusion and 2 hours after the end of the infusion. On day 8 treatment was changed to 140 mg silymarin (Legalon®, Madaus, Köln) TID per os in combination with 180 μ[…]®; Roche, Basel) and 1-1.2 g/d ribavirin (COPEGUS®; Roche, Basel).

hepatitis C virus [5] = experiment: Example 2: iv silibinin co-treatment during ongoing peginterferon/ribavirin, HCV-RNA; format: in vivo, human
Protocol: Patients were continuously treated with 180 μg peginterferon alfa 2a and weight based ribavirin. In spite of this treatment, five patients were HCV-RNA positive after 24 weeks of therapy: Three male patients and two female patients; four patients with HCV genotype 1 and one patient with HCV genotype 3a; three patients with cirrhosis. Four patients can be regarded as naïve, whereas one patient can be regarded as […] respect to two previous therapies (24 and 48 weeks). In the course of the ongoing treatment with 180 μg peginterferon alfa 2a and weight based ribavirin, all patients were treated at least once for 14 consecutive days with 20 mg/kg/d silibinin iv. During this period, combination therapy with peginterferon/ribavirin was continued.

mouse cell line L929 = format: cell-based
Protocol: An in vitro study was performed to assess the cytotoxic potential of silymarin, silibinin, silibinin bis(hydrogensuccinate) disodium salt, and succinic acid by means of the XTT test using the mouse cell line L929 (cf. D. A. Scudiero et al., Cancer Res. 48, 4827-33; O, S. Weislow et al., J. Natl. Cancer Inst., 81, 577-86; N. W. Roehm et al., J. Immunol. Methods, 142). The following concentrations of the test items were tested: 9.77, 19.53, 39.06, 78.13, 156.25, 312.5, 625, 1250 μg/mL. Complete medium (RPMI 1640 containing 10% (v/v) FCS) was used as negative control. The solvent control for the test item was RPMI 1640 medium containing 10% (v/v) FCS) and 1% DMSO. The solvent control for the positive control was also RPMI 1640 medium containing 10% (v/v) FCS and 10.0% (v/v) deionized water. SDS was used as positive control. The following concentrations were applied: 3.125, 6.25, 12.5, 25, 50, 100, 125, 250 μg/mL. The incubation time was 24 hours at 37±1.5° C.

T1 sequence (O92972 2420-2989, stated change not applied): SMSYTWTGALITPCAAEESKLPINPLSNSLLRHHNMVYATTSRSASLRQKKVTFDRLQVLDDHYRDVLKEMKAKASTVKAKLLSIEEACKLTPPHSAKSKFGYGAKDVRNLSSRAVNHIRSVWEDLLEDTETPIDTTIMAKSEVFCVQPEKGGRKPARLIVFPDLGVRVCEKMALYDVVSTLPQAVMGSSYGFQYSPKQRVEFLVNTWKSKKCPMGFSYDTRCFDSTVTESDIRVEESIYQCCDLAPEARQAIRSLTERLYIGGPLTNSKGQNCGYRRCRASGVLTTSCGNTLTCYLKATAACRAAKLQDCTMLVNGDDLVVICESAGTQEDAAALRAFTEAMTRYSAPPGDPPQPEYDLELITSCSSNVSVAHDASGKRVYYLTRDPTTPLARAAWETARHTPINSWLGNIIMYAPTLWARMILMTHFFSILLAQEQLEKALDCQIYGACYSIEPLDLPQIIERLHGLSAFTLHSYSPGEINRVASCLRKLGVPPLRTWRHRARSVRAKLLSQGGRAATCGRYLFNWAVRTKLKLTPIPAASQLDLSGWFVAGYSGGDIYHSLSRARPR

Compound | AUC(0-tz), free silibinin ([1]; day 1) [ng·h/mL] | Cmax, free silibinin ([1]; day 1) [ng/mL] | HVD, free silibinin ([1]; day 1) [h] | AUC(0-∞), free silibinin ([1]; day 1) [ng·h/mL] | % PTF, free silibinin ([1]; day 7) [%] | AUCss, free silibinin ([1]; day 7) [ng·h/mL] | Cav, free silibinin ([1]; day 7) [ng/mL] | Cmax, free silibinin ([1]; day 7) [ng/mL] | HVD, free silibinin ([1]; day 7) [h] | MRT ([1]; day 1) [h] | Tmax ([1]; day 1) [h] | clearance ([1]; day 1) [mL/min/kg] | Vd ([1]; day 1) [L/kg] | half-life ([1]; day 1) [h] | MRT ([1]; day 7) [h] | clearance ([1]; day 7) [mL/min/kg] | Vd ([1]; day 7) [L/kg] | half-life ([1]; day 7) [h] | further results
COc1cc([C@H]2Oc3cc([C@H]4Oc5cc(O)cc(O)c5C(=O)[C@@H]4O)ccc3O[C@@H]2CO)ccc1O [Silibinin A] | 3302 ± 1551 | 316 ± 108 | 10.12 ± 4.29 | 3614 ± 1648 | 164.00 ± 45.33 | 4095 ± 1942 | 171 ± 81 | 315 ± 119 | 11.87 ± 2.64 | 8.49 ± 2.64 | 3.73 ± 1.22 | 117 | 51.4 ± 12.7 | 4.58 ± 1.35 | 9.88 ± 1.86 | 98.3 | 55.3 ± 18.5 | 6.85 ± 1.29 | –
COc1cc([C@@H]2Oc3cc([C@H]4Oc5cc(O)cc(O)c5C(=O)[C@@H]4O)ccc3O[C@H]2CO)ccc1O [Silibinin B] | 559 ± 339 | 90 ± 44 | 6.09 ± 2.14 | 753 ± 397 | 305.24 ± 80.46 | 1041 ± 627 | 43 ± 26 | 120 ± 54 | 7.17 ± 1.63 | 8.81 ± 6.12 | 4.03 ± 0.04 | 747 | 286 ± 164 | 5.16 ± 4.96 | 6.27 ± 2.39 | 447 | 140 ± 49 | 4.35 ± 1.66 | –
COc1cc(C2Oc3cc(C4Oc5cc(O)cc(O)c5C(=O)C4OC(=O)CCC(=O)O)ccc3OC2COC(=O)CCC(=O)O)ccc1O (stereo not drawn) [silibinin C-2′,3-bis(hydrogensuccinate)] | – | – | – | – | – | – | – | – | – | – | – | – | – | – | – | – | – | – | IC50 [2]: 47 ± 14 µM; NS5B inhibition compared with six purified constituents of silymarin ([2]; FIG. 11 vs FIG. 12): most efficient; mean log decline of HCV RNA within one week (hepatitis C virus [3]; 10 mg/kg/day iv for 7 days): 1.32±0.55 log; Serum HCV RNA at day 8 (mean±SD) (hepatitis C virus [3]; 10 mg/kg/day iv over 4 h for 7 days, baseline 6.59±0.53, 16 nonresponders, p<0.001): 5.26±0.81 log IU/ml; ALT after iv monotherapy [4]: 118±107 U/1; viral load after second co-treatment, FIG. 7 patient (hepatitis C virus [5]; 20 mg/kg/day iv 14 days, permanently depressed): below the detection limit; viral load rebound after the first administration interval, FIG. 7 patient (hepatitis C virus [5]; person): about 2 IU/mL; viral load after co-treatment, FIG. 8 patient (hepatitis C virus [5]; person, 20 mg/kg/day iv 14 days after 30 weeks, from about log 4 IU/mL, permanent): below the detection limit; viral load after co-treatment, FIG. 9 patient (hepatitis C virus [5]; person, 20 mg/kg/day iv 14 days after 72 weeks): far below the detection limit; viral load after first co-treatment, FIG. 7 patient (hepatitis C virus [5]; person, 20 mg/kg/day iv 14 days from week 24, from about log 4.5 IU/mL): below the detection limit
silymarin | – | – | – | – | – | – | – | – | – | – | – | – | – | – | – | – | – | – | calculated XTT50 value (mouse cell line L929): 35.2 µg/mL; cytotoxic potential higher than that of silibinin (mouse cell line L929): ~100%
